Test results as given in patent EP1289507B1, “USE OF AN ALDOSTERONE ANTAGONIST FOR THE TREATMENT OR PROPHYLAXIS OF ALDOSTERONE-MEDIATED PATHOGENIC EFFECTS” (priority 2000, dated 2001).
Where “and” joins values, the source holds several entries; their conditions need not be identical. Equal values may be shown once. Entries after “also recorded” stand apart in the source; their conditions may differ.

How the values were obtained:
[1] = test system: L-NAME/Angiotensin II/NaCl-treated rats; assay: L-NAME/Angiotensin II/NaCl model of cardiac and renal injury (14 days); type: in vivo, Male Wistar rats
Method: Animals. Male Wistar rats (n=44), weighing 200 to 225 grams, and obtained from Charles River Laboratories (Wilmington, MA) were used in the study. All animals were housed in a room lighted 12 hours per day at an ambient temperature of 22±1°C. Animals were allowed one week to recover after arrival and had free access to Purina Lab Chow 5001 (Ralston Purina Inc, St. Louis, MO) and tap water until the initiation of the experiment. After initiation of the protocols, animals in all groups were placed in individual metabolic cages, handled and weighed daily. Twenty-four hour fluid intake, food intake and urine output were measured daily. […] On day 14 of L-NAME treatment, animals were decapitated, trunk blood was collected into chilled tubes containing ethylene diamine tetraacetic acid and the heart and kidneys were removed, blotted dry and immediately weighed. […] Drugs. Eplerenone was supplied by G.D. Searle Pharmaceuticals (St. […] Dexamethasone was dissolved in sesame oil and administered as a single subcutaneous dose (12 μg/kg/day) every day. This dose of dexamethasone has been reported to maintain normal weight gain, glomerular filtration rate, and fasting plasma glucose and insulin levels in adrenalectomized rats. Stanton, B., Giebisch G et al. J. Clin. Invest 1985 75:1317-1326. The experiment was concluded on day 14 of L-NAME treatment. […] (Hou J et al. J. Clin. Invest. 1995 96:2469-2477. […] This lower dose induced lesions in stroke-prone spontaneously hypertensive rats. (Rocha R et al. […] Dexamethasone, aldosterone and L-NAME were purchased from Sigma Chemical Co. (St. Louis, MO). […] Surgical Procedure. […] Bilateral adrenalectomy was performed using a dorsolumbar approach, making separate incisions on each side. […] No post operative deaths occurred. Assays and Analyses. Systolic blood pressure was measured in awake animals by tail-cuff plethysmography using a Natsume KN-210 manometer and tachometer (Peninsula Laboratories Inc, Belmont, CA). Rats were warmed at 37°C for 10 minutes and allowed to rest quietly in a Lucite chamber before measurement of blood pressure. Urinary protein concentration was determined in urine collected on the last day of the experiment using the sulfosalicylic acid turbidity method. […] Plasma aldosterone concentration was determined using a standard radioimmunoassay-kit from Diagnostic Products Co. (Los Angeles, CA). Plasma renin activity ("PRA") was determined by radioimmunoassay detection of generated angiotensin I (DiaSorin Inc., Stillwater, MN). Histology. Hearts were stained with collagen specific dye Sirius red for determination of fibrosis as reported elsewhere. (Young M et al. Am. J. Physiol 1995 269:[…]-[…]). Interstitial collagen was determined using an automated image analyzer. The hearts were also stained with hematoxylin and eosin for light microscopic analysis. Two or three slices of different sections of the heart containing both right and left ventricle were analyzed from each animal. […] Glomerular damage, when present, was characterized as the presence of either segmental or global sclerosis with ischemic or thrombotic changes. Renal arterial and arteriolar damage was categorized as the presence of fibrinoid necrosis of the vascular wall. The renal arterial and arteriolar profiles presenting damage were counted and the number of injured vessels per section was divided by the number of glomeruli in the same section in order to normalize for the amount of tissue examined. […] Statistical analysis. Data were tested for normality using the Kolmogorov-Smimov test. Systolic blood pressure was analyzed using repeated measures-analysis of variance for time and treatment group. One-way analysis of variance was used for normally distributed data with one grouping variable. Post-hoc analysis was performed using Newman Keuls multiple-comparison test. Data that were not normally distributed were analyzed with the Kruskal-Wallis test. Subsequently, selected pairwise comparisons were made using the exact Wilcoxon test. […]

[2] = test system: Stroke Prone Spontaneously Hypertensive Rat (SHR-SP); assay: Blood pressure in stroke prone spontaneously hypertensive rat (SHR-SP), tail cuff plethysmography; type: in vivo
Method: Methods: SHR-SP were bred in the animal facilities of New York Medical College and maintained on normal rat chow and non-saline drinking water (i.e., tap water). […] Indirect measurements of systolic blood pressure were assessed by tail cuff plethysmography.

[3] = test system: aldosterone/salt uninephrectomized rats; assay: Myocardial injury in aldosterone/salt uninephrectomized rats; type: in vivo, Sprague Dawley rats; settings: eplerenone 100 mg/k/d in chow; aldosterone 0.75ug/hr, 1% NaCl
Method: Sprague Dawley rats (250 g) were uninephrectomized and provided with 1% NaCl-solution as the only source of water. The rats were then implanted with Alzet mini pump that subcutaneously delivered either aldosterone (0.75ug/hr) or vehicle. […] Blood pressure was measured by radio telemetry units implanted in abdominal aorta. Rats were sacrificed for examination of the hearts.

[4] = test system: aortas of New Zealand white rabbits on normal or 1 % cholesterol chow; assay: Endothelial function (isometric tension, superoxide generation) of aortas in diet induced atherosclerosis; type: in vivo; settings: for % NTG (peak relaxation to nitroglycerin) / %Ach (peak relaxation to acetylcholine): eplerenone 50 mg/kg twice daily; for %Ach (peak relaxation to acetylcholine): 6 weeks; for O2 counts: lucigenin chemiluminescence
Method: Methods: New Zealand white rabbits were randomized to four treatment groups. 32 Rabbits were placed on normal (NC) or 1 % cholesterol chow (HC) for a duration of 8 weeks. […] Rabbits were euthanized at the end of 8 weeks and the aortas extracted for isometric tension studies and estimation of superoxide (O2^-) generation in vessel segments by lucigenin chemiluminescence (250 µM). Vessels were preconstricted with phenylephrine (3 x 10^-7) to approximately 50% of peak constriction and dose responses to acetylcholine (Ach) and nitroglycerin (NTG) tested.

[5] = Form H content of dried solids by X-ray powder diffraction (XPRD); type: physicochemical
[6] = test system: L-NAME/ANG-II-induced renal injury in rats; settings: cited from earlier work
[7] = test system: stroke-prone spontaneously hypertensive rats; settings: cited from earlier work
[8] = end of experiment, Epl 100 mg/kg/day p.o., ALDO 40 µg/kg/day in adrenalectomized rats

COC(=O)[C@@H]1CC2=CC(=O)CC[C@]2(C)[C@@]23O[C@@H]2C[C@@]2(C)[C@@H](CC[C@@]24CCC(=O)O4)[C@H]13 [Eplerenone, Pregn-4-ene-7,21-dicarboxylic acid, 9,11-epoxy-17-hydroxy-3-oxo-, γ-lactone, methyl ester, (7α, 11α, 17β)-]
cardiac injury (myocardial necrosis), histology ([1]; Figures A-3B, A-4): markedly reduced
HW/BW ([1]; cardiac hypertrophy index, Epl 100 mg/kg/day p.o., ALDO 40 µg/kg/day in adrenalectomized rats): 3.46 ± .05 mg/g
cardiac hypertrophy ([1]; compared to L-NAME/Angiotensin II/NaCl-treated rats): significantly reduced cardiac hypertrophy
HW [1, 8]: 1144 ± 4 mg
SBP [1, 8]: 177 ± 8 mmHg
urinary protein excretion (24 hour), proteinuria ([1]; end of two-week treatment, Figure A-5): prevented the development of proteinuria
extent of hypertension observed at the end of the experiment ([1]; eplerenone 100 mg/kg/day p.o., Figure A-1): not appreciably influenced
reduction in renal arteriopathy damage compared to L-NAME/AngII/NaCl treated rats ([1]; histopathologic scores, P=0.1 (not significant)): 60%
systolic blood pressure ([2]; Week 13 (initiation), 100 mg/kg/day p.o. BID): 201.4 ± 1.6 mmHg
systolic blood pressure ([2]; Week 14, 100 mg/kg/day p.o. BID): 202.8 ± 1.8 mmHg
systolic blood pressure ([2]; Week 15, 100 mg/kg/day p.o. BID): 208.0 ± 4.2 mmHg
systolic blood pressure ([2]; Week 16, 100 mg/kg/day p.o. BID): 203.1 ± 6.2 mmHg
histopathologic myocardial damage [3]: prevents the histopathologic damage; also recorded: prevents the aldosterone plus high sodium myocardial damage
% NTG (peak relaxation to nitroglycerin) ([4]; 1 % cholesterol chow (HC)): 112±4%
%Ach (peak relaxation to acetylcholine) ([4]; 1 % cholesterol chow (HC)): 82±6 %
O2 counts ([4]; 1 % cholesterol chow (HC)): 1400±504 per mg of dry weight
% NTG (peak relaxation to nitroglycerin) ([4]; normal chow (NC)): 107±2%
%Ach (peak relaxation to acetylcholine) ([4]; normal chow (NC)): 97±3%
O2 counts ([4]; normal chow (NC)): 1110±373 per mg of dry weight
Weight Percent Form H (XPRD) ([5]; cooling rate (0) 1.5°C/min, cooling endpoint (0) 25°C, impurity level (0) 100.8% purity starting material (footnote as printed), replicate runs): <3% Weight Percent and 5 Weight Percent
Weight Percent Form H (XPRD) ([5]; cooling rate (+) 3°C/min, cooling endpoint (-) 5°C, impurity level (+) 89.3% purity starting material): 9 Weight Percent
L-NAME/ANG-II-induced renal injury [6]: prevents L-NAME/ANG-II-induced renal injury
proteinuria, renal lesions and hypertension [7]: prevented proteinuria and renal lesions but not severe hypertension
